≈ marks a conversion by molar mass, not a printed value. Where a name gives a salt, the structure may show the parent alone. Read-outs that look alike come from different tables or passages of the source.
Tested on: pathogenic bacteria
Experiment: MIC by microdilution broth method (NCCLS M7-A4), in vitro antibacterial activity
Assay type: cell-based
In short: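 MIC read after 35 °C incubation for 16–20 h relative to drug-free growth wells. Cation-adjusted Mueller-Hinton broth with two-fold compound dilutions, organisms at roughly 5×10^4 CFU/well final. Method follows NCCLS document M7-A4.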

[1] = Staphylococcus aureus, Organism A: Staphylococcus aureus OC4172, read-out: MIC
[2] = Streptococcus pneumoniae, ATCC49619, Organism E: Streptococcus pneumoniae ATCC 49619, read-out: MIC
[3] = Streptococcus pneumoniae, Organism B: fluoroquinolone-resistant clinical isolate of Streptococcus pneumoniae (QRDR amino acid substitutions)
[4] = Streptococcus pneumoniae, Organism C: fluoroquinolone-resistant clinical isolate of Streptococcus pneumoniae (QRDR amino acid substitutions)
[5] = Streptococcus pneumoniae, Organism D: fluoroquinolone-resistant clinical isolate of Streptococcus pneumoniae (QRDR amino acid substitutions)
[6] = Staphylococcus aureus, Organism A: Staphylococcus aureus OC4172
[7] = Streptococcus pneumoniae, ATCC49619, Organism E: Streptococcus pneumoniae ATCC 49619

SMILES: NCC(Cl)=C1CCN(c2nc3c(cc2F)c(=O)c(C(=O)O)cn3-c2ccc(F)cc2F)CC1 [Compound 271, 7-[4-(2-Amino-1-chloro-ethylidene)-piperidin-1-yl]-1-(2,4-difluoro-phenyl)-6-fluoro-4-oxo-1,4-dihydro-[1,8]naphthyridine-3-carboxylic acid]
- MIC [1]: ≤ 0.015 µg/mL
- MIC [2]: 0.12 µg/mL (≈ 0.251 µM)
- MIC [3]: 1 µg/mL (≈ 2.09 µM)
- MIC [4]: 1 µg/mL (≈ 2.09 µM)
- MIC [5]: 1 µg/mL (≈ 2.09 µM)

SMILES: NCC(F)=C1CN(c2cc3c(cc2F)c(=O)c(C(=O)O)cn3C2CC2)C1 [Compound 272, 7-[3-(2-amino-1-fluoro-ethylidene)-azetidin-1-yl]-1-cyclopropyl-6-fluoro-4-oxo-1,4-dihydro-quinoline-3-carboxylic acid]
- MIC [1]: ≤ 0.015 µg/mL
- MIC [2]: 0.5 µg/mL (≈ 1.38 µM)
- MIC [3]: 4 µg/mL (≈ 11.1 µM)
- MIC [4]: 0.5 µg/mL (≈ 1.38 µM)

SMILES: COc1c(N2CC(=C(F)CN)C2)c(F)cc2c(=O)c(C(=O)O)cn(C3CC3)c12 [Compound 273, 7-[3-(2-amino-1-fluoro-ethylidene)-azetidin-1-yl]-1-cyclopropyl-6-fluoro-8-methoxy-4-oxo-1,4-dihydro-quinoline-3-carboxylic acid]
- MIC [1]: 0.03 µg/mL (≈ 0.0767 µM)
- MIC [2]: 4 µg/mL (≈ 10.2 µM)
- MIC [3]: 4 µg/mL (≈ 10.2 µM)
- MIC [4]: 0.5 µg/mL (≈ 1.28 µM)

SMILES: COc1c(N2CC(=C(F)CN)C2)ccc2c(=O)c(C(=O)O)cn(C3CC3)c12 [Compound 274, 7-[3-(2-amino-1-fluoro-ethylidene)-azetidin-1-yl]-1-cyclopropyl-8-methoxy-4-oxo-1,4-dihydro-quinoline-3-carboxylic acid]
- MIC [1]: 0.06 µg/mL (≈ 0.161 µM)
- MIC [2]: 1 µg/mL (≈ 2.68 µM)
- MIC [3]: 4 µg/mL (≈ 10.7 µM)
- MIC [4]: 1 µg/mL (≈ 2.68 µM)

SMILES: COc1c(N2CCC(=C(Cl)CN)CC2)ccc2c(=O)c(C(=O)O)cn(C3CC3)c12 [Compound 275, 7-[4-(2-Amino-1-chloro-ethylidene)-piperidin-1-yl]-1-cyclopropyl-8-methoxy-4-oxo-1,4-dihydro-quinoline-3-carboxylic acid]
- MIC [1]: 0.03 µg/mL (≈ 0.0718 µM)
- MIC [2]: 0.12 µg/mL (≈ 0.287 µM)
- MIC [3]: 1 µg/mL (≈ 2.39 µM)
- MIC [4]: 1 µg/mL (≈ 2.39 µM)
- MIC [5]: 1 µg/mL (≈ 2.39 µM)

SMILES: C[C@H]1COc2c(N3CC(=C(F)CN)C3)c(F)cc3c(=O)c(C(=O)O)cn1c23 [Compound 276, 9-[3-(2-Amino-1-fluoro-ethylidene)-azetidin-1-yl]-8-fluoro-(3S)-3-methyl-6-oxo-2,3-dihydro-6H-1-oxa-3a-aza-phenalene-5-carboxylic acid]
- MIC [1]: ≤ 0.015 µg/mL
- MIC [2]: 0.25 µg/mL (≈ 0.663 µM)
- MIC [3]: 0.5 µg/mL (≈ 1.33 µM)
- MIC [4]: 2 µg/mL (≈ 5.3 µM)
- MIC [5]: 4 µg/mL (≈ 10.6 µM)

SMILES: C[C@H]1COc2c(N3CCC(=C(Cl)CN)CC3)c(F)cc3c(=O)c(C(=O)O)cn1c23 [Compound 277, 9-[4-(2-Amino-1-chloro-ethylidene)-piperidin-1-yl]-8-fluoro-(3S)-3-methyl-6-oxo-2,3-dihydro-6H-1-oxa-3a-aza-phenalene-5-carboxylic acid]
- MIC [1]: ≤ 0.015 µg/mL
- MIC [2]: 0.03 µg/mL (≈ 0.0711 µM)
- MIC [3]: 0.25 µg/mL (≈ 0.593 µM)
- MIC [4]: 0.25 µg/mL (≈ 0.593 µM)
- MIC [5]: 0.5 µg/mL (≈ 1.19 µM)

SMILES: N#CC(CN)=C1CCN(c2nc3c(cc2F)c(=O)c(C(=O)O)cn3C2CC2)CC1 [Compound 283, 7-[4-(2-Amino-1-cyano-ethylidene)-piperidin-1-yl]-1-cyclopropyl-6-fluoro-4-oxo-1,4-dihydro-[1,8]naphthyridine-3-carboxylic Acid]
- MIC [1]: 0.25 µg/mL (≈ 0.629 µM)
- MIC [2]: 0.5 µg/mL (≈ 1.26 µM)
- MIC [3]: 2 µg/mL (≈ 5.03 µM)
- MIC [4]: 4 µg/mL (≈ 10.1 µM)
- MIC [5]: 8 µg/mL (≈ 20.1 µM)

SMILES: N#CC(CN)=C1CCN(c2cc3c(cc2F)c(=O)c(C(=O)O)cn3C2CC2)CC1 [Compound 285, 7-[4-(2-Amino-1-cyano-ethylidene)-piperidin-1-yl]-1-cyclopropyl-6-fluoro-4-oxo-1,4-dihydro-quinoline-3-carboxylic Acid]
- MIC [1]: 0.25 µg/mL (≈ 0.631 µM)
- MIC [2]: 1 µg/mL (≈ 2.52 µM)
- MIC [4]: 8 µg/mL (≈ 20.2 µM)
- MIC [5]: > 16 µg/mL

SMILES: NCC(C(=O)O)=C1CCN(c2nc3c(cc2F)c(=O)c(C(=O)O)cn3C2CC2)CC1 [Compound 286, 7-[4-(2-Amino-1-carboxy-ethylidene)-piperidin-1-yl]-1-cyclopropyl-6-fluoro-4-oxo-1,4-dihydro-[1,8]naphthyridine-3-carboxylic Acid]
- MIC [1]: 4 µg/mL (≈ 9.61 µM)
- MIC [2]: 16 µg/mL (≈ 38.4 µM)
- MIC [4]: > 16 µg/mL
- MIC [5]: > 16 µg/mL

SMILES: NCCNCC(Cl)=C1CCN(c2nc3c(cc2F)c(=O)c(C(=O)O)cn3C2CC2)CC1.O=C(O)C(F)(F)F [Compound 289, 7-{4-[2-(2-Amino-ethylamino)-1-chloro-ethylidene]-piperidin-1-yl}-1-cyclopropyl-6-fluoro-4-oxo-1,4-dihydro-[1,8]naphthyridine-3-carboxylic Acid Trifluoroacetic Acid Salt]
- MIC [1]: 0.5 µg/mL
- MIC [2]: 0.25 µg/mL
- MIC [4]: 1 µg/mL
- MIC [5]: 2 µg/mL

SMILES: O=CN1CCN(CC(Cl)=C2CCN(c3nc4c(cc3F)c(=O)c(C(=O)O)cn4C3CC3)CC2)CC1 [Compound 291, 7-{4-[1-Chloro-2-(4-formyl)-piperazin-1-yl-ethylidene]-piperidin-1-yl}-1-cyclopropyl-6-fluoro-4-oxo-1,4-dihydro-[1,8]naphthyridine-3-carboxylic Acid Trifluoroacetic Acid Salt]
- MIC [1]: 2 µg/mL
- MIC [2]: 8 µg/mL
- MIC [4]: > 16 µg/mL
- MIC [5]: 8 µg/mL

SMILES: O=C(O)c1cn(C2CC2)c2nc(N3CCC(=C(Cl)CN4CCNCC4)CC3)c(F)cc2c1=O [Compound 292, 7-[4-(1-chloro-2-piperazin-1-yl-ethylidene)-piperidin-1-yl]-1-cyclopropyl-6-fluoro-4-oxo-1,4-dihydro-[1,8]naphthyridine-3-carboxylic Acid Trifluoroacetic Acid Salt]
- MIC [6]: 1 µg/mL
- MIC [7]: 4 µg/mL
- MIC [4]: > 16 µg/mL
- MIC [5]: 16 µg/mL

SMILES: O=C(O)C(F)(F)F.O=C(O)c1cn(C2CC2)c2nc(N3CCC(=C(F)CN4CCNCC4)CC3)c(F)cc2c1=O [Compound 294, 1-Cyclopropyl-6-fluoro-7-[4-(1-fluoro-2-piperazin-1-yl-ethylidene)-piperidin-1-yl]-4-oxo-1,4-dihydro-[1,8]naphthyridine-3-carboxylic Acid Trifluoroacetic Acid Salt]
- MIC [1]: 2 µg/mL
- MIC [2]: 8 µg/mL
- MIC [3]: > 16 µg/mL
- MIC [4]: > 16 µg/mL
- MIC [5]: > 16 µg/mL

SMILES: C[C@H]1COc2c(N3CCC(=C(F)CN(C)C)CC3)c(F)cc3c(=O)c(C(=O)O)cn1c23 [Compound 295, 9-[4-(2-Dimethylamino-1-fluoro-ethylidene)-piperidin-1-yl]-8-fluoro-(3S)-3-methyl-6-oxo-2,3-dihydro-6H-1-oxa-3a-aza-phenalene-5-carboxylic Acid]
- MIC [1]: 0.5 µg/mL (≈ 1.15 µM)
- MIC [2]: 2 µg/mL (≈ 4.61 µM)
- MIC [3]: 16 µg/mL (≈ 36.9 µM)
- MIC [4]: 16 µg/mL (≈ 36.9 µM)
- MIC [5]: 8 µg/mL (≈ 18.5 µM)

SMILES: C/C(CN)=C1\CCCN(c2nc3c(cc2F)c(=O)c(C(=O)O)cn3C2CC2)C1.O=C(O)C(F)(F)F [Compound 297, (Z)-7-[3-(1-Amino-2-propylidene)-piperidin-1-yl]-1-cyclopropyl-6-fluoro-4-oxo-1,4-dihydro-[1,8]naphthyridine-3-carboxylic Acid Trifluoroacetic Acid Salt]
- MIC [1]: 0.25 µg/mL
- MIC [2]: 1 µg/mL
- MIC [3]: 16 µg/mL
- MIC [4]: 16 µg/mL
- MIC [5]: 16 µg/mL

SMILES: CN(C)CC(Cl)=C1CCN(c2cc3c(cc2F)c(=O)c(C(=O)O)cn3C2CC2)CC1 [Compound 298, 7-[4-(1-Chloro-2-dimethylamino-ethylidene)-piperidin-1-yl]-1-cyclopropyl-6-fluoro-4-oxo-1,4-dihydro-quinoline-3-carboxylic Acid Trifluoroacetic Acid Salt]
- MIC [6]: 0.25 µg/mL
- MIC [7]: 1 µg/mL
- MIC [3]: 16 µg/mL
- MIC [4]: 16 µg/mL
- MIC [5]: 8 µg/mL

SMILES: CN(C)CC(F)=C1CCN(c2cc3c(cc2F)c(=O)c(C(=O)O)cn3C2CC2)CC1 [Compound 299, 1-Cyclopropyl-7-[4-(2-dimethylamino-1-fluoro-ethylidene)-piperidin-1-yl]-6-fluoro-4-oxo-1,4-dihydro-quinoline-3-carboxylic acid]
- MIC [1]: 0.5 µg/mL (≈ 1.2 µM)
- MIC [2]: 1 µg/mL (≈ 2.4 µM)
- MIC [3]: 16 µg/mL (≈ 38.3 µM)
- MIC [4]: > 16 µg/mL
- MIC [5]: 2 µg/mL (≈ 4.79 µM)

SMILES: O=C(O)c1cn(C2CC2)c2cc(N3CCC(=C(Cl)CN4CCCCC4)CC3)c(F)cc2c1=O [Compound 300, 7-[4-(1-Chloro-2-piperidin-1-yl-ethylidene)-piperidin-1-yl]-1-cyclopropyl-6-fluoro-4-oxo-1,4-dihydro-quinoline-3-carboxylic acid]
- MIC [1]: 0.5 µg/mL (≈ 1.05 µM)
- MIC [2]: 2 µg/mL (≈ 4.22 µM)
- MIC [3]: > 16 µg/mL
- MIC [4]: > 16 µg/mL
- MIC [5]: 2 µg/mL (≈ 4.22 µM)

SMILES: C/C(CN)=C1\CCCN(c2cc3c(cc2F)c(=O)c(C(=O)O)cn3C2CC2)C1 [Compound 301, (Z)-7-[3-(2-Amino-1-methyl-ethylidene)-piperidin-1-yl]-1-cyclopropyl-6-fluoro-4-oxo-1,4-dihydro-quinoline-3-carboxylic acid]
- MIC [1]: 0.12 µg/mL (≈ 0.311 µM)
- MIC [2]: 0.25 µg/mL (≈ 0.649 µM)
- MIC [3]: 8 µg/mL (≈ 20.8 µM)
- MIC [4]: 8 µg/mL (≈ 20.8 µM)
- MIC [5]: 8 µg/mL (≈ 20.8 µM)

SMILES: COc1c(N2CCC/C(=C(\C)CN)C2)c(F)cc2c(=O)c(C(=O)O)cn(C3CC3)c12 [Compound 302, (Z)-7-[3-(2-Amino-1-methyl-ethylidene)-piperidin-1-yl]-1-cyclopropyl-6-fluoro-8-methoxy-4-oxo-1,4-dihydro-quinoline-3-carboxylic acid]
- MIC [1]: ≤ 0.03 µg/mL
- MIC [2]: ≤ 0.12 µg/mL
- MIC [3]: 1 µg/mL (≈ 2.41 µM)
- MIC [4]: ≤ 0.5 µg/mL
- MIC [5]: 1 µg/mL (≈ 2.41 µM)

SMILES: COc1c(N2CCC/C(=C(\F)CN)C2)c(F)cc2c(=O)c(C(=O)O)cn(C3CC3)c12 [Compound 303, (E)-7-[3-(2-Amino-1-fluoro-ethylidene)-piperidin-1-yl]-1-cyclopropyl-6-fluoro-8-methoxy-4-oxo-1,4-dihydro-quinoline-3-carboxylic Acid Trifluoroacetic Acid Salt]
- MIC [1]: ≤ 0.015 µg/mL
- MIC [2]: 0.03 µg/mL
- MIC [3]: 0.25 µg/mL
- MIC [4]: 0.12 µg/mL
- MIC [5]: 0.25 µg/mL

Reference: US20090156577A1, “7-AMINO ALKYLIDENYL-HETEROCYCLIC QUINOLONES AND NAPHTHYRIDONES” (priority 2004, published 2009)
